Data from ChEMBL document CHEMBL5029145, “Discovery of AZD8154, a Dual PI3Kγδ Inhibitor for the Treatment of Asthma” (J Med Chem, 2021).
Active and inactive are the calls of the source. The calls are words filed in the database; no cut-off is given here.

What was measured:
[1] = Thermodynamic stability assessed as onset melting temperature; type: physicochemical
[2] = target: T1, Phosphatidylinositol 3-kinase C2 domain-containing subunit gamma (Homo sapiens, UniProt O75747); experiment: Inhibition of PIK3C2G (unknown origin) assessed as reduction in substrate phosphorylation by FRET Adapta assay
T1 sequence (O75747 whole entry): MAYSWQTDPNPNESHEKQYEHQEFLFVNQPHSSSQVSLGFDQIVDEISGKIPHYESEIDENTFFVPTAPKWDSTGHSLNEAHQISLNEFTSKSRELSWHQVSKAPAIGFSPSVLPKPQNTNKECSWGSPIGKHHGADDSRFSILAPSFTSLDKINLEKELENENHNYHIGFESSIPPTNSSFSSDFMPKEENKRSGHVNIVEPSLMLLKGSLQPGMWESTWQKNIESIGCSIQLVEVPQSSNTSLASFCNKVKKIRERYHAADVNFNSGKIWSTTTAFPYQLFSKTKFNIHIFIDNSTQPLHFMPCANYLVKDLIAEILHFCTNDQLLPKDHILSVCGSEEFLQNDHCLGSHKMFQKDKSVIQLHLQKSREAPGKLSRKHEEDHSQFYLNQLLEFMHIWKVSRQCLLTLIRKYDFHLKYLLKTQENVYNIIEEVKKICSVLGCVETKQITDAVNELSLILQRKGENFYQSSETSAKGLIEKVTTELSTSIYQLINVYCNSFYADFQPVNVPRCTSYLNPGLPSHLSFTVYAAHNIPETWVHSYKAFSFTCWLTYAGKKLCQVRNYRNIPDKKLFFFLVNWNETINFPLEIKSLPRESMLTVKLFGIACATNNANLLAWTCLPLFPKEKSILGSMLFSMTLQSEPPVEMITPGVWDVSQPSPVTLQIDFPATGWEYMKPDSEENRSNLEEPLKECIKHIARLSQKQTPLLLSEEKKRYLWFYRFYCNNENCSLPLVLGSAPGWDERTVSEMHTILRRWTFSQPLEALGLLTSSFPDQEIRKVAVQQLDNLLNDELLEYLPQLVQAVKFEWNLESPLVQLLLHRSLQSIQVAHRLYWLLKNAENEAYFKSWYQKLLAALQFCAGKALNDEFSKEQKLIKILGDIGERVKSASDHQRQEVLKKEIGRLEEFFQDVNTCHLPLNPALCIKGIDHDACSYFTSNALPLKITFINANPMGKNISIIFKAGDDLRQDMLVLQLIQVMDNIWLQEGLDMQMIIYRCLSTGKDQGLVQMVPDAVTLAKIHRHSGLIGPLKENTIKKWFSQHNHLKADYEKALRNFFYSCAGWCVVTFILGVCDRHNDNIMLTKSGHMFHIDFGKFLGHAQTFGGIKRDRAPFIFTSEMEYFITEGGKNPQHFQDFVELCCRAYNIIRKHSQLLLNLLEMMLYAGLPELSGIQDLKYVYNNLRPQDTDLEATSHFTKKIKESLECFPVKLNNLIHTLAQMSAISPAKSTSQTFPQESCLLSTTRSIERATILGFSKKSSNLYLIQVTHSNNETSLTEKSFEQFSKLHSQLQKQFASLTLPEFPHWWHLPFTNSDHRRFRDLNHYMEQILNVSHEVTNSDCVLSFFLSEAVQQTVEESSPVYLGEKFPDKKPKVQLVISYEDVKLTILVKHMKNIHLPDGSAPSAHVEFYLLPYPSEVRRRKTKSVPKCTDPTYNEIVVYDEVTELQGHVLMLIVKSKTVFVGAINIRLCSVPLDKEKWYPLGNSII

[3] = target: Phosphatidylinositol 4,5-bisphosphate 3-kinase catalytic subunit alpha isoform (Homo sapiens, UniProt P42336); experiment: Inhibition of recombinant human PI3Kalpha assessed as reduction in ADP production using Dic8-PIP2 as substrate pre-treated for 15 mins followed by substrate addition measured after 60 mins by ADP-glo assay
Phosphatidylinositol 4,5-bisphosphate 3-kinase catalytic subunit alpha isoform, sequence (P42336 whole entry, canonical isoform): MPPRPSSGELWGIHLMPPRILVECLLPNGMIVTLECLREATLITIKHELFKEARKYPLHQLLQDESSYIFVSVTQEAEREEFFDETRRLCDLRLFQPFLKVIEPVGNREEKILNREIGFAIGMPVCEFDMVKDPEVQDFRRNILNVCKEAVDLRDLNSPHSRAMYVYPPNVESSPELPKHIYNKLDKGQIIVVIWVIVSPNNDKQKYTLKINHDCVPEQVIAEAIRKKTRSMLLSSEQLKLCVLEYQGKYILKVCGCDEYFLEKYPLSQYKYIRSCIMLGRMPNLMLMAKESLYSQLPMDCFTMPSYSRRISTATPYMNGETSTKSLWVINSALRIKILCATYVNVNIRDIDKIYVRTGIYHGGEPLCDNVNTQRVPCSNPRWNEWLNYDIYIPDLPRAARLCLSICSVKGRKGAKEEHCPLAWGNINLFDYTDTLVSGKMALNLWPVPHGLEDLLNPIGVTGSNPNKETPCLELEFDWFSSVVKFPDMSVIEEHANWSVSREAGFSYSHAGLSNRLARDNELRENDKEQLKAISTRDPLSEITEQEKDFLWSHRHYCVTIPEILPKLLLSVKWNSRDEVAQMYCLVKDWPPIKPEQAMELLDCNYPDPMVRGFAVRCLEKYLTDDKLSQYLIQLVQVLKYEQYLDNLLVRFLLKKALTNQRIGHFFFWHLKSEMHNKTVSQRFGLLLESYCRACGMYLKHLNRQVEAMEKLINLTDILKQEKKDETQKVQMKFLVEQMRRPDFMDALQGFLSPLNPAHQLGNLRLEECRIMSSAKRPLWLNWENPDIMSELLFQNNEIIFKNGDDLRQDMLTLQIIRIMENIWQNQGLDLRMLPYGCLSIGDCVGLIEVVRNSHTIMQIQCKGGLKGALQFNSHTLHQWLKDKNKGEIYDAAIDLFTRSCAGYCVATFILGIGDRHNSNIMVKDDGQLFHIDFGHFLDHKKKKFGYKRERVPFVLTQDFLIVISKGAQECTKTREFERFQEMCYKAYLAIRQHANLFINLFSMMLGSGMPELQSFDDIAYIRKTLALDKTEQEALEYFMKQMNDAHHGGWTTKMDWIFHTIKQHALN

Rattus norvegicus = experiment: Antiinflammatory activity in ovalbumin-induced Brown Norway rat assessed as reduction in eosinophil counts in bronchoalveolar lavage at 240 microg/kg inhaled using nebulizer 7 hrs prior to ovalbumin challenge measured after 48 hrs by flow cytometry; type: functional, organism-based; conditions: dose 240.0 µg/kg, time 55.0 hrs

## Cc1nc(Nc2cccc(N3CCCC3=O)n2)sc1-c1cc2c(c(S(C)(=O)=O)c1)C(=O)N([C@@H](C)C1CC1)C2 [AZD-8154]
[1]
  Tm: 285 °C
[2]
  IC50: 0.0631 µM
[3]
  IC50: 0.0631 µM
Rattus norvegicus
  Activity: Active
